SMILES strings stand for the structures.

The results in this text go back to patent US5115017A, “Polyvinyl oleate as a fat replacement” (Nabisco Brands, Inc., priority 1989, dated 1992).

The data set deals with T1, porcine pancreatic lipase (Sus scrofa, UniProt P00591).
T1 construct: purchased U.S. Biochemical Corporation
T1 sequence (P00591 1-450): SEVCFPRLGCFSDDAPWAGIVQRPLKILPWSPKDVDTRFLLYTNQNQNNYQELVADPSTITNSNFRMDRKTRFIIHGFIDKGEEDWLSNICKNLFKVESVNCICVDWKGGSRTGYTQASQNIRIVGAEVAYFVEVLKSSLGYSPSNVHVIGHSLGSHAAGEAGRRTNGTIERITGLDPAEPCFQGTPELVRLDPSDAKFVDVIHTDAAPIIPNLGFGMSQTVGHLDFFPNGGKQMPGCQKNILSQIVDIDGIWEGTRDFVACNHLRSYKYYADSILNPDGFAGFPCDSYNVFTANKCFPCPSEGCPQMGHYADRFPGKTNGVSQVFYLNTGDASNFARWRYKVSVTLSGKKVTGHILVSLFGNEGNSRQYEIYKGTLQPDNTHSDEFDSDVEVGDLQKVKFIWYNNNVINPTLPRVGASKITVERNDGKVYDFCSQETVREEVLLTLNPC
Nature of the data set: in vitro digestibility (lipase hydrolysis) screening test. In kind it is biochemical. The note with it: in 10 minutes with this enzyme system, 37° C., pH 7.1 phosphate buffer; triglyceride control.

Procedure: This example outlines the procedure for estimating the in vitro digestibility of the polyvinyl esters of this invention.
Buffer: A pH 7.1 phosphate buffer is prepared by dissolving 6.8 g. KH2 PO4 in 1 L. of millipore filtered water (to yield 0.05M phosphate). Fifty mg. Ca(NO3)2 and 5.0 g. cholic acid (Na salt, an ox bile isolate from Sigma) are added to give 300 microM Ca^++ and 0.5% cholic acid in 0.05M phosphate. The pH is adjusted to approximately 7.1 with solid NaOH. Several drops of Baker "Resi-analyzed" toluene are added to prevent bacterial growth during storage at 3-5° C.
Lipase: About 15 mg./mL commercial porcine pancreatic lipase from U.S. Biochemical Corporation is dissolved in buffer.
(The proper concentration may be approximated by doubling the molecular weight of the lipid in question, dividing by 10, and diluting to the mark; this yields about 200 nanomoles per microliter.) This preparation affords the substrate to be used in the hydrolysis reactions. Fatty acids and glyceride standards from Nu Chek or Sigma are prepared for elution on TLC plates (prewashed with 1:1 chloroform/methanol) by diluting the substrate solution with 10:1 toluene (1 part substrate plus 9 parts toluene) in septum vials. […]

For `CCCCCCCC/C=C\CCCCCCCC(=O)OCC(COC(=O)CCCCCCC/C=C\CCCCCCCC)OC(=O)CCCCCCC/C=C\CCCCCCCC` [triolein], the “hydrolysis by pancreatic lipase (in vitro digestibility)” value was “substantially hydrolyzed”.
